Source: article PMC7391456, “Targeting fibroblast activation protein (FAP): next generation PET radiotracers using squaramide coupled bifunctional DOTA and DATA^5m chelators” (EJNMMI Radiopharmacy and Chemistry, 2020)
Each block holds one compound with its values, some of them ahead of it.

Key:
human FAP = biological target: T1, human FAP (Homo sapiens, UniProt Q12884); test: FAP inhibition assay (IC50, Z-Gly-Pro-AMC substrate); type: biochemical
T1 construct: the human secretion signal was replaced with the HoneyBee mellitin secretion signal; HoneyBee mellitin secretion signal (replaces the native signal-anchor) (N); C-terminal tag of the BaculoDirect C-term kit (C); made in house; host or cells: Sf9 insect cells (baculovirus); purified from the supernatant
T1 sequence (Q12884 26-760 limits assumed): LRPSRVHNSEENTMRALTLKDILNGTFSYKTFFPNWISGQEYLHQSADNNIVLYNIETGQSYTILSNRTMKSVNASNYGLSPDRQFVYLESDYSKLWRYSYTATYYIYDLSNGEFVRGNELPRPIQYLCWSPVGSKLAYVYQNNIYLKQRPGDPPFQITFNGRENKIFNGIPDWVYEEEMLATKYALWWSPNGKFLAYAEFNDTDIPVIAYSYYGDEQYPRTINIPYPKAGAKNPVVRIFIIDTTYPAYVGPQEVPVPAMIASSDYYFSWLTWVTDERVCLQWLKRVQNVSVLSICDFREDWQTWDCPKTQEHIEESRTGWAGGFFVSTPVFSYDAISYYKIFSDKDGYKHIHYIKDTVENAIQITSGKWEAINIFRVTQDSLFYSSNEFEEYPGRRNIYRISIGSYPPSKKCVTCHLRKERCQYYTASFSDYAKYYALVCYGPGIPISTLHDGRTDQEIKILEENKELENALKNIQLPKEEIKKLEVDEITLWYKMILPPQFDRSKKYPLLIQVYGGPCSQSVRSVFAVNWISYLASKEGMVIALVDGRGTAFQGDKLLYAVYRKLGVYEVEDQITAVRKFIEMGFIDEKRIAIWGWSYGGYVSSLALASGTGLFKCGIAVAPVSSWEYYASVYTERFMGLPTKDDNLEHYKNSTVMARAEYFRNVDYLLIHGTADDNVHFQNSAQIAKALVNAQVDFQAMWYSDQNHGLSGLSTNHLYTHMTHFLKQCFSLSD
Text: (§1) Enzymes: A gateway-entry clone for human FAP was purchased from Dharmacon (Accession number DQ891423) and the human secretion signal was replaced with the HoneyBee mellitin secretion signal. For transfection and expression of FAP in Sf9 insect cells, the C-terminal BaculoDirect kit from LifeTechnologies was used. The enzyme was purified from the supernatant of the insect cells using immobilized Ni-chelating chromatography (GE healthcare, Diegem, Belgium), followed by anion-exchange chromatography using a 1 mL HiTrap Q (GE healthcare, Diegem, Belgium). Human recombinant PREP was expressed in BL21(DE3) cells and purified using immobilized Co-chelating chromatography (GE healthcare) followed by anion-exchange chromatography on a 1 ml Mono Q column (GE healthcare).
(§2) Eight concentrations of inhibitors were tested. The final DMSO concentration was kept constant during the experiment to exclude any solvent effects. Inhibitors were pre-incubated with the enzyme for 15 min at 37 °C, afterwards the substrate was added and the velocities of AMC release were measured kinetically at λex = 380 nm, λem = 465 nm for at least 10 min at 37 °C. The Infinite 200 (Tecan Group Ltd.) micro-titer plate reader and the Magellan software were used for measurement and data processing respectively.
(§3) The data were fitted using a non-linear fit model in GraFit 7 software, according to the following equation: y=range/1+x/IC50^s where y is the value of the residual enzymatic activity compared to a non-inhibited sample, x is the final inhibitor concentration in the assay, s is the slope factor and the IC50 is the half maximal inhibitory concentration.

[1] = Stability studies of gallium-68 complexes in media (EtOH, human serum, saline, PBS); type: physicochemical; conditions: different media (summary statement)
Protocol: Gallium-68 stability studies against transmetallation (Fe, Cu, Ca, Mg), transchelation (EDTA, DTPA) as well as in HS, EtOH and saline (0.9% isotone NaCl-solution) were performed. 50 μl of the [^68Ga]Ga-DOTA.SA.FAPi labeling solution with > 95% radiochemical purity were added to 1 mL of the respective media. The measured time points for gallium-68 were 15, 30, 45, 60, 90, 120 min. HS (human male AB plasma, USA origin) was bought from Sigma Aldrich, PBS was purchased from Sigma Aldrich and 0.9% saline from B. Braun Melsungen AG (Melsungen, Germany).

Human recombinant PREP = biological target: T2, Human recombinant PREP (Homo sapiens, UniProt P48147); test: PREP inhibition assay (IC50, N-succinyl-Gly-Pro-AMC substrate); type: biochemical; conditions: N-succinyl-Gly-Pro-AMC 250 μM, pH 7.4, 15 min pre-incubation at 37 °C
T2 sequence (P48147 1-710): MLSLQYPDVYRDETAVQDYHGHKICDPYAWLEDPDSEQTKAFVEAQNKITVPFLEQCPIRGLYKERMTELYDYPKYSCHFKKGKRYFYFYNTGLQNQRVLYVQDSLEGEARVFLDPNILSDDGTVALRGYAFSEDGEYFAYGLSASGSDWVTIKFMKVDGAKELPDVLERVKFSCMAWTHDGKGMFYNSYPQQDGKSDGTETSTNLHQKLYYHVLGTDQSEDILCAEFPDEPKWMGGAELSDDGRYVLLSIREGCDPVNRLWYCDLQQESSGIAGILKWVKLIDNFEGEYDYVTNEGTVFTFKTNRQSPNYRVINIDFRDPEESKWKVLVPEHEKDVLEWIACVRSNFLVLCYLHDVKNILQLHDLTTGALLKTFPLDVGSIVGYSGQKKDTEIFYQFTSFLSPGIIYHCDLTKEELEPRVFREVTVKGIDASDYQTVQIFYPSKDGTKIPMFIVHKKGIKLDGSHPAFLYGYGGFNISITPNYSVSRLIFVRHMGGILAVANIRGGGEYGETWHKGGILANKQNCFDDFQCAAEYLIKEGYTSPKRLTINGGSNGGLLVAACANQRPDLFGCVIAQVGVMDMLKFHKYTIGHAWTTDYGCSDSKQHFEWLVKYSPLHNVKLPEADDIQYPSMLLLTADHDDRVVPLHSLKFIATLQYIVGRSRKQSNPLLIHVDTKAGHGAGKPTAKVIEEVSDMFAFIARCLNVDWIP
Text: as §1
as §2, with “concentration is” for “concentration was”, “any” for “any solvent”, “data processing,” for “data processing”
as §3

FAP = system: FAP; design: method as in originally published value; conditions: different FAP substrate (Ala-Pro-pNA); ref originally published value; cited from earlier work
PANC-1 = system: PANC-1; design: method as in Watabe et al. [2020]; conditions: read from graphs, ref Watabe et al. [2020], cited from earlier work
MIA-PaCa-2 = system: MIA-PaCa-2; design: method as in Watabe et al. [2020]; conditions: MIA-PaCa-2 tumor model, read from graphs; ref Watabe et al. [2020]; cited from earlier work
HT-1080 FAP = system: HT-1080 FAP; design: method as in Lindner et al. [2018]; conditions: HT-1080 FAP tumor model, read from graphs; ref Lindner et al. [2018]; cited from earlier work
[2] = PANC-1 / MIA-PaCa-2, one value given

- IC50 (human FAP; Z-Gly-Pro-AMC 50 μM, pH 8, 15 min pre-incubation at 37 °C): 0.9 ± 0.1 nM
- Selectivity index (IC50 PREP / IC50 FAP) (human FAP; ratio of the IC50 values for FAP and PREP): 6000
- Stability in different media, intact conjugate [1]: more than 95%
- IC50 (Human recombinant PREP): 5400 ± 300 nM
SMILES: N#C[C@@H]1CC(F)(F)CN1C(=O)CNC(=O)c1ccnc2ccc(OCCCCNc3c(NCCNC(=O)CN4CCN(CC(=O)O)CCN(CC(=O)O)CCN(CC(=O)O)CC4)c(=O)c3=O)cc12 [DOTA.SA.FAPi, (S)-2,2′,2″-(10-(2-((2-((2-((4-((4-((2-(2-cyano-4,4-difluoropyrrolidin-1-yl)-2-oxo-ethyl)carbamoyl)quinolin-6-yl)oxy)butyl)amino)-3,4-dioxocyclobut-1-en-1-yl)amino)ethyl)amino)-2-oxoethyl)-1,4,7,10-tetraazacyclododecane-1,4,7-triyl) triacetic acid]

SMILES: N#C[C@@H]1CC(F)(F)CN1C(=O)CNC(=O)c1ccnc2ccc(OCCCN3CCN(C(=O)CN4CCN(CC(=O)[O-])CCN(CC(=O)[O-])CCN(CC(=O)[O-])CC4)CC3)cc12.[68Ga+3] [[^68Ga]Ga-FAPI-04]
- SUVmean(60 min p.i.) Heart (PANC-1; [2]): 0.17
- SUVmean(60 min p.i.) Kidney (PANC-1; [2]): 0.36
- SUVmean(60 min p.i.) Liver (PANC-1; [2]): 0.67
- SUVmean(60 min p.i.) Muscle (PANC-1; [2]): 0.03
- SUVmean(60 min p.i.) Tumor (PANC-1; PANC-1 tumor model): 0.14
- SUVmean(60 min p.i.) Tumor (MIA-PaCa-2): 0.11
- SUVmean(60 min p.i.) Heart (HT-1080 FAP): 0.16
- SUVmean(60 min p.i.) Kidney (HT-1080 FAP): 0.33
- SUVmean(60 min p.i.) Liver (HT-1080 FAP): 0.11
- SUVmean(60 min p.i.) Muscle (HT-1080 FAP): 0.06
- SUVmean(60 min p.i.) Tumor (HT-1080 FAP): 0.45
